Data reported in ChEMBL document CHEMBL1649303, “Effects of subinhibitory concentrations of antibiotics on colonization factor expression by moxifloxacin-susceptible and moxifloxacin-resistant Clostridium difficile strains” (2009).
Converted amounts (≈) assume the structure as drawn.

Columns and labels:
Format in all cases: functional
Clostridioides difficile [1] = assay: Induction of Cwp84 protease expression in Clostridium difficile ATCC 43603-M1 at 0.5 times MIC by immunoblot analysis
Clostridioides difficile [2] = assay: Upregulation of cwp84 gene expression in Clostridium difficile ATCC 43603-M1 at 0.5 times MIC by real-time PCR analysis relative to control
Clostridioides difficile [3] = assay: Antimicrobial activity against Clostridium difficile CD196 by broth dilution method
Clostridioides difficile [4] = assay: Upregulation of slpA gene expression in Clostridium difficile ATCC 43603 at 0.5 times MIC by real-time PCR analysis relative to control
Clostridioides difficile [5] = assay: Upregulation of fbp68 gene expression in Clostridium difficile ATCC 43603-M1 at 0.5 times MIC by real-time PCR analysis relative to control
Clostridioides difficile [6] = assay: Upregulation of cwp84 gene expression in Clostridium difficile ATCC 43603 at 0.5 times MIC by real-time PCR analysis relative to control
Clostridioides difficile [7] = assay: Induction of Cwp84 protease expression in Clostridium difficile 6425 at 0.5 times MIC by immunoblot analysis
Clostridioides difficile [8] = assay: Antimicrobial activity against Clostridium difficile ATCC 43603-M1 by broth dilution method
Clostridioides difficile [9] = assay: Antimicrobial activity against Clostridium difficile ATCC 43603 by broth dilution method
Clostridioides difficile [10] = assay: Antimicrobial activity against Clostridium difficile 6269 by broth dilution method
Clostridioides difficile [11] = assay: Antimicrobial activity against Clostridium difficile CD07-259 by broth dilution method
[12] = Antimicrobial activity against Clostridium difficile CD196 M1 by broth dilution method; details: Clostridioides difficile
Clostridioides difficile [13] = assay: Upregulation of slpA gene expression in Clostridium difficile CD07-259 at 0.5 times MIC by real-time PCR analysis relative to control
Clostridioides difficile [14] = assay: Upregulation of slpA gene expression in Clostridium difficile 6425 at 0.5 times MIC by real-time PCR analysis relative to control
Clostridioides difficile [15] = assay: Antimicrobial activity against Clostridium difficile 6425 by broth dilution method
Clostridioides difficile [16] = assay: Upregulation of slpA gene expression in Clostridium difficile ATCC 43603-M1 at 0.5 times MIC by real-time PCR analysis relative to control
Clostridioides difficile [17] = assay: Upregulation of fbp68 gene expression in Clostridium difficile ATCC 43603 at 0.5 times MIC by real-time PCR analysis relative to control

| SMILES | Activity (Clostridioides difficile [1]) [%] | fold change (FC) (Clostridioides difficile [2]) | MIC (Clostridioides difficile [3]) [µg/mL] | fold change (FC) (Clostridioides difficile [4]) | fold change (FC) (Clostridioides difficile [5]) | fold change (FC) (Clostridioides difficile [6]) | Activity (Clostridioides difficile [7]) [%] | MIC (Clostridioides difficile [8]) [µg/mL] | MIC (Clostridioides difficile [9]) [µg/mL] | MIC (Clostridioides difficile [10]) [µg/mL] | MIC (Clostridioides difficile [11]) [µg/mL] | MIC [12] [µg/mL] | fold change (FC) (Clostridioides difficile [13]) | fold change (FC) (Clostridioides difficile [14]) | MIC (Clostridioides difficile [15]) [µg/mL] | fold change (FC) (Clostridioides difficile [16]) | fold change (FC) (Clostridioides difficile [17]) |
| --- | --- | --- | --- | --- | --- | --- | --- | --- | --- | --- | --- | --- | --- | --- | --- | --- | --- |
| CC1COc2c(N3CCN(C)CC3)c(F)cc3c(=O)c(C(=O)O)cn1c23 (configuration not stated) [OFLOXACIN] | 25 | 67.4 | 8 (≈ 22.1 µM) | 3.9 | 2.1 | 3.2 | 130 | 256 (≈ 708 µM) | 8 (≈ 22.1 µM) | 32 (≈ 88.6 µM) | 256 (≈ 708 µM) | 128 (≈ 354 µM) | 22 | 4 | 256 (≈ 708 µM) | 32.8 | 4.8 |
| CCC[C@@H]1C[C@@H](C(=O)N[C@@H]([C@H]2O[C@H](SC)[C@H](O)[C@@H](O)[C@H]2O)[C@H](C)Cl)N(C)C1 [CLINDAMYCIN] |  |  | 128 (≈ 301 µM) |  |  |  |  |  | 4 (≈ 9.41 µM) | 1 (≈ 2.35 µM) | 4 (≈ 9.41 µM) |  |  |  | 128 (≈ 301 µM) |  |  |
| CC1(C)S[C@@H]2[C@H](NC(=O)[C@H](N)c3ccccc3)C(=O)N2[C@H]1C(=O)O [AMPICILLIN] |  |  | 8 (≈ 22.9 µM) |  |  |  |  |  | 2 (≈ 5.72 µM) | 2 (≈ 5.72 µM) | 4 (≈ 11.4 µM) |  |  |  | 4 (≈ 11.4 µM) |  |  |
